This is an account of results in article PMC6177136, “Hybrid topoisomerase I and HDAC inhibitors as dual action anticancer agents” (PLoS ONE, 2018).

Read-outs that look alike come from different tables or passages of the source.

Holding throughout (assay type): cell-based, Human
One test concerns NCI-H460. Put plainly: Cytotoxicity assay (SRB, 72 h) NCI-H460. Particulars: for IC50: 72 h, SRB assay, read-out: IC50 ± SD NCI-H460. For orientation: Sulforhodamine B stains cellular protein and so reports cell mass.
In another test the test system is Capan 1. Put plainly: Cytotoxicity assay (SRB, 72 h) Capan 1.
Another test relates to A431. Kind of test: Cytotoxicity assay (SRB, 72 h) A431.
For the next test, the system named is HeLa. Put plainly: Cytotoxicity assay (SRB, 72 h) HeLa. Conditions: read-out: IC50 ± SD HeLa.
The subject of the next test is HT29. Put plainly: Cytotoxicity assay (SRB, 72 h) HT29.
The next test has as its system DU145. Put plainly: Cytotoxicity assay (SRB, 72 h) DU145.
The test system of another test is HepG2. Put plainly: Cytotoxicity assay (SRB, 72 h) HepG2.
The test system of a further test is A2780. Kind of test: Cytotoxicity assay (SRB, 72 h) A2780.
The test system of the next test is A2780-Dx. Put plainly: Cytotoxicity assay (SRB, 72 h) A2780-Dx. Conditions: for IC50: 72 h, SRB assay, multidrug-resistant ovarian carcinoma, read-out: IC50 ± SD A2780-Dx; for RI (Resistance Index): A2780-Dx versus A2780.
For the next test, the system named is MINO. Put plainly: Cytotoxicity assay (MTT, 72 h) MINO. Particulars: 72 h, MTT assay; read-out: IC50 ± SD MINO. For orientation: Formazan colour is commonly taken as a measure of viable cells.
In another test the test system is MAVER-2. Put plainly: Cytotoxicity assay (MTT, 72 h) MAVER-2. Conditions: read-out: IC50 ± SD MAVER-2.
In another test the test system is JECO-1. Kind of test: Cytotoxicity assay (MTT, 72 h) JECO-1. Particulars: 72 h, MTT assay; read-out: IC50 ± SD JECO-1.
In another test the test system is U-2932. Kind of test: Cytotoxicity assay (MTT, 72 h) U-2932. Conditions: read-out: IC50 ± SD U-2932.
The subject of the next test is OCI-LY3. Kind of test: Cytotoxicity assay (MTT, 72 h) OCI-LY3. Conditions: 72 h, MTT assay; read-out: IC50 ± SD OCI-LY3. The protocol:
(§1) Human tumor cells were seeded in 96-well cell culture plastic plates, allowed to attach, and exposed to scalar concentrations of the test compounds.

Another test has as its system L-428. Kind of test: Cytotoxicity assay (MTT, 72 h) L-428. Particulars: 72 h, MTT assay; read-out: IC50 ± SD L-428. Here is the method: as §1
A further test has as its system KM-H2. Kind of test: Cytotoxicity assay (MTT, 72 h) KM-H2. Conditions: 72 h, MTT assay; read-out: IC50 ± SD KM-H2.
The test system of the next test is DG-75. Kind of test: Cytotoxicity assay (MTT, 72 h) DG-75.
In another test the test system is NB4. Kind of test: Cytotoxicity assay (MTT, 72 h) NB4. Particulars: read-out: IC50 ± SD NB4.
In another test the test system is MM288. Put plainly: Cytotoxicity assay, primary mesothelioma MM288.
In another test the test system is MM317. Kind of test: Cytotoxicity assay, primary mesothelioma MM317. Particulars: epithelioid, 72 h, SBR assay; read-out: IC50 ± SD MM317.
For another test, the system named is MM404. Put plainly: Cytotoxicity assay, primary mesothelioma MM404. Particulars: epithelioid, 72 h, SBR assay; read-out: IC50 ± SD MM404.
A further test deals with MM473. Put plainly: Cytotoxicity assay, primary mesothelioma MM473. Conditions: epithelioid, 72 h, SBR assay; read-out: IC50 ± SD MM473.
The next test concerns MM481. Kind of test: Cytotoxicity assay, primary mesothelioma MM481. Particulars: epithelioid, 72 h, SBR assay; read-out: IC50 ± SD MM481.
The test system of a further test is MM487. Kind of test: Cytotoxicity assay, primary mesothelioma MM487.
The subject of a further test is MM491. Put plainly: Cytotoxicity assay, primary mesothelioma MM491. Conditions: biphasic, 72 h, SBR assay; read-out: IC50 ± SD MM491.
The test system of another test is MM432. Put plainly: Cytotoxicity assay, primary mesothelioma MM432.
A further test concerns H2A.X. Put plainly: Western blot, H2A.X induction in NCI-H460 cells. Conditions: 24 h; SAHA 5 μM, SN38 0.05 μM, 3d 0.125–0.2–0.5 μM. Here is the method:
(§2) The supernatant, containing the total proteins extracts, were transferred in new vials. The protein concentration was measured by Bradford Protein Assay. Equal amounts of proteins for each sample were then resolved by SDS-PAGE and loaded on 10–12% polyacrilamide gels. The proteins were then transferred on nitrocellulose membranes. Molecular weights were estimated based upon the relative migration with molecular weight protein markers.
(§3) The non-specific binding was blocked by incubation of membranes in TBS-tween (25 mM Tris, 150 mM NaCl, 0.1% Tween 20) with 5% nonfat dry milk (BIORAD, Milan) for 60 minutes. Subsequently, the membrane was incubated overnight with primary antibodies: anti-Histone H4 (Millipore, 1:500), anti-acetyl-H4 (Santa Cruz, 1:1000) anti-p21 (Santa Cruz, 1:1000), anti-acetyl-tubulin (abcam, 1:1000), anti-α-tubulin (Sigma, 1:5000), anti β-actin (Sigma, 1:5000) and anti-Topoisomerase 1 (Santa Cruz, 1:500). After three washes with TBST blots were incubated with HRP-coniugated secondary anti-mouse and anti-rabbit (Santa Cruz, 1:5000) 1 hour at room temperature. After three washes with TBST the blots were developed with ECL substrate (GE Healthcare) and chemiluminescence detected by ChemiDoc Imaging System (Biorad). The optical density of the protein bands detected by western blotting was normalized on α -tubulin levels and analyzed by ChemiDoc software (Biorad).
(§4) Cells were lysed in 0.5% NP-40 and 40 μg of total proteins were loaded on NuPAGE 4–12% (Invitrogen), transferred to a nitrocellulose paper and probed with specific antibodies.

The test system of a further test is p53. Put plainly: Western blot, p53 in NCI-H460 cells. Particulars: 24 h; SAHA 5 μM, SN38 0.05 μM, 3d 0.125–0.2–0.5 μM. The protocol:
as §2, §3, §4
A general note: A western blot detects proteins with antibodies after separation by electrophoresis.

The subject of the next test is p16. Put plainly: Western blot, p16 in NCI-H460 cells. Particulars: 24 h; SAHA 5 μM, SN38 0.05 μM, 3d 0.125–0.2–0.5 μM. The protocol: as §2, §3, §4
A further test relates to CycD1. Kind of test: Western blot, CycD1 in NCI-H460 cells. Particulars: 24 h; SAHA 5 μM, SN38 0.05 μM, 3d 0.125–0.2–0.5 μM. The protocol: as §2, §3, §4
The mark [1] stands for this setting: Homo sapiens, CAPAN-1, read-out: IC50 ± SD Capan 1.
Where [2] appears, read: meaning not defined in the paper.

With `CCc1c2c(nc3ccc(OCCCCCCC(=O)NO)cc13)-c1cc3c(c(=O)n1C2)COC(=O)[C@]3(O)CC` [CY700], the IC50 – broadly, the point on the concentration scale where inhibition reaches its midpoint – with NCI-H460 came to 360 ± 20 nM; with Capan 1 (read-out: IC50 ± SD Capan 1), 960 ± 80 nM; with A431 (read-out: IC50 ± SD A431) it was 790 ± 100 nM; with HeLa it was 3300 ± 900 nM; with HT29 (read-out: IC50 ± SD HT29), 1200 ± 200 nM; in the test on DU145 (read-out: IC50 ± SD DU145), 870 ± 40 nM. The IC50 was 1500 ± 400 nM in the test with HepG2 (read-out: IC50 ± SD HepG2); 2500 ± 300 nM with A2780 (read-out: IC50 ± SD A2780); 5900 ± 1000 nM in the test on A2780-Dx; 370 ± 100 nM in the test on MINO; 400 ± 80 nM in the test with MAVER-2; 1000 ± 400 nM in the test on JECO-1. Moreover, the IC50 with U-2932 was 900 ± 300 nM; in the test with OCI-LY3 it was 340 ± 40 nM; with L-428 it was 1700 ± 200 nM; in the test on KM-H2 it was 1500 ± 500 nM; in the test with DG-75 (72 h, MTT assay, read-out: IC50 ± SD DG-75), > 10000 nM; with NB4, 240 ± 60 nM. For the same molecule, the “RI (Resistance Index)” value in the test with A2780-Dx came out at 2.4. For the same molecule, in the test with DG-75 (meaning not defined in the paper, given beside >10 μM), the “percentage in parentheses after IC50 >10, DG-75” value came to 18%.
On to `CC[C@@]1(O)C(=O)OCc2c1cc1n(c2=O)Cc2c-1nc1ccccc1c2C=NOCC(=O)NO` [Compound 3a, Camptothecin-7-yl(methyleneaminooxy)-acetic acid hydroxyamide], for which the IC50 with NCI-H460 (Homo sapiens, NCI-H460) is 360 ± 100 nM; in the test with Capan 1 (setting [1]), 50 ± 6 nM.
Consider `CC[C@@]1(O)C(=O)OCc2c1cc1n(c2=O)Cc2c-1nc1ccccc1c2C=NOCCCCCCC(=O)NO` [Compound 3c, 7-(camptothecin-7-ylmethyleneaminooxy)-heptanoic acid hydroxyamide], for which the IC50 is 198 ± 180 nM in the test on NCI-H460 (Homo sapiens, NCI-H460); 43 ± 3 nM with Capan 1 (setting [1]); 26 ± 1 nM in the test with A431 (Homo sapiens, A-431, read-out: IC50 ± SD A431); 2400 ± 500 nM in the test on HeLa (Homo sapiens, HeLa); 45 ± 10 nM in the test with HT29 (Homo sapiens, HT-29, read-out: IC50 ± SD HT29); 29 ± 1 nM in the test on DU145 (Homo sapiens, DU-145, read-out: IC50 ± SD DU145). Moreover, the IC50 in the test with HepG2 (Homo sapiens, HepG2, read-out: IC50 ± SD HepG2) worked out at 680 ± 200 nM; in the test on A2780 (Homo sapiens, A2780, read-out: IC50 ± SD A2780) it was 38 ± 8 nM; with A2780-Dx (Homo sapiens, A2780/DX), 65 ± 10 nM. Moreover, the “RI (Resistance Index)” value with A2780-Dx is 1.7.
`O=c1[nH]cc(F)c(=O)[nH]1` [Compound 5-FU]: the IC50 was > 200000 nM in the test on MM288 (epithelioid, 72 h, SBR assay, read-out: IC50 ± SD MM288); 17900 ± 3100 nM with MM317; 52200 ± 8700 nM in the test with MM404; 35200 ± 8400 nM in the test on MM473; 27400 ± 2200 nM in the test with MM481; > 200000 nM with MM487 (biphasic, 72 h, SBR assay, read-out: IC50 ± SD MM487). Moreover, the IC50 is 44000 ± 10300 nM in the test on MM491 and > 200000 nM with MM432 (sarcomatoid, 72 h, SBR assay, read-out: IC50 ± SD MM432). Besides, the “percentage in parentheses after IC50 >200, MM288” value with MM288 (setting [2]) turned out to be 35%. Also, in the test on MM487 (setting [2]), the “percentage in parentheses after IC50 >200, MM487” value is 48%. In addition, the “percentage in parentheses after IC50 >200, MM432” value with MM432 (setting [2]) turned out to be 34%.
As to `CCc1c2c(nc3ccc(O)cc13)-c1cc3c(c(=O)n1C2)COC(=O)[C@]3(O)CC` [SN38], in the test with NCI-H460 (NCI-H460 cells), the IC80 (as a rule, the concentration at which the effect reaches the 80% level) is ~50 nM. Also, the “H2A.X induction (DNA damage)” value in the test on H2A.X is “completely ineffective in H2A.X induction”. In addition, the p53 activation entry in the test with p53 is on record as “less effective in p53 up-regulation”. Besides, the P16 regulation entry in the test with p16 is recorded as “didn’t show any effect”. For the same molecule, in the test with CycD1, the CycD1 regulation entry is reported as “didn’t show any effect”.
